These results are taken from ChEMBL document CHEMBL1134921 (Bioorg Med Chem Lett, 2002).

For experiment [1], the species on record is Mus musculus. Kind of experiment: Effective dose for Antinociceptive activity was determined in mice using Tail -Flick Assay: The symbol > signifies that no effect was produced at that dose. It counts as functional.
Experiment [2] concerns the target Neuronal nicotinic acetylcholine receptor. Briefly: Binding affinity against Nicotinic acetylcholine receptor using [3H](-)-nicotine radioligand. It counts as protein-complex assay.
Experiment [3] is filed under the species Rattus norvegicus. Kind of experiment: Effective dose for Antinociceptive activity was determined in rat using drug discrimination assay: The symbol > signifies that no effect was produced at that dose. The format is functional.
Experiment [4] has as its system Mus musculus. Kind of experiment: Effective dose for Antinociceptive activity expressed as Spontaneous activity was determined in mice antagonized by 1 mg/Kg of Mecamylamine: The symbol > signifies that no effect was produced at that dose. The format is functional.
The species entered for experiment [5] is Mus musculus. Briefly: Effective dose for Antinociceptive activity was determined in mice using Tail -Flick Assay. The format is functional.
Experiment [6] has as its system Mus musculus. Kind of experiment: Effective dose for Antinociceptive activity expressed as Spontaneous activity was determined in mice antagonized by 1 mg/Kg of Mecamylamine. It counts as functional.
For experiment [7], the species on record is Rattus norvegicus. Kind of experiment: Effective dose for Antinociceptive activity was determined in rat using drug discrimination assay. It counts as functional.
The test system of experiment [8] is Mus musculus. Briefly: Compound was tested to antagonize the antinociceptive actions of 2.5 mg/kg of (-)nicotine as measured in the tail-flick assay in mice. It counts as functional. (Thermal pain tests record how soon the animal reacts.)
[9] abbreviates: Mus musculus, Tail, read-out: ED50.
[10] abbreviates: Rattus norvegicus, read-out: ED50.

In the case of `CCCc1ccc(C2CCCN2C)cn1` (racemic), the figures for the ED50 in experiment [1] and in experiment [3] were above 70 µmol/kg and above 20 µM/kg, respectively. The same compound registered an inhibition constant (Ki) in experiment [2] of 0.025 µM.
In the case of `CCCCCc1ccc(C2CCCN2C)cn1` (racemic), the ED50 in experiment [1] and in experiment [4] was above 50 µmol/kg throughout. Also, the inhibitory constant (Ki) in experiment [2] was found to be 0.072 µM.
For the compound `Cc1ccc(C2CCCN2C)cn1` (racemic), the ED50 is 3.5 µmol/kg in experiment [5] (setting [9]); 1 µmol/kg in experiment [6] (Mus musculus, read-out: ED50); 0.4 µmol/kg in experiment [7] (setting [10]). Further, the affinity in experiment [2], expressed as Ki, was 0.0018 µM.
Turning to `CN1CCC[C@H]1c1cccnc1` (racemic) [NICOTINE], the ED50 in experiment [5] (setting [9]) came out at 9.9 µmol/kg; in experiment [6] (Mus musculus, read-out: ED50), 4.9 µmol/kg; in experiment [7] (setting [10]), 0.6 µmol/kg.
`CCc1ccc(C2CCCN2C)cn1` (single isomer, unassigned; (-)): the ED50 amounted to 2.1 µmol/kg in experiment [5] (setting [9]); 1.4 µmol/kg in experiment [6] (Mus musculus, read-out: ED50); 1.1 µmol/kg in experiment [7] (setting [10]). The compound further returned a Ki in experiment [2] of 0.0056 µM.
For `CCCc1ccc(C2CCCN2C)cn1` (single isomer, unassigned; (-)), in experiment [8], the AD50 is 4.9 µM/kg. The ED50 in experiment [4] is above 35 µmol/kg; in experiment [3], above 50 µM/kg. The Ki in experiment [2] worked out at 0.022 µM.
Take `CCCCc1ccc(C2CCCN2C)cn1` (single isomer, unassigned; (-)): the AD50 in experiment [8] came to 9.2 µM/kg. In addition, in experiment [1], the ED50 was above 50 µmol/kg. This compound also showed an inhibition constant Ki in experiment [2] of 0.021 µM.
On to `CN1CCC[C@H]1c1cccnc1` [NICOTINE], for which the ED50 in experiment [5] came out at 7.4 µM/kg; in experiment [6], 3.1 µM/kg; in experiment [7], 0.6 µM/kg.

By Ki is commonly meant a dissociation constant, usually derived from enzyme kinetics or from competition with a known ligand.
